Series [1] deals with vancomycin-sensitive Staphylococcus aureus Newman strain. The experiment in a line: In vitro antibacterial activity assay (MIC, CLSI dilution method). It counts as cell-based. The settings on record: Staphylococcus aureus, S. aureus Newman, 37° C., 16 h.
The test system of series [2] is vancomycin-middle resistant Staphylococcus aureus Mu50 strain. Described as above. Format: cell-based.
Series [3] concerns Staphylococcus aureus USA300 LAC strain (CA-MRSA). It counts as in vivo. The settings on record: for in vivo antibacterial activity against methicillin-resistant Staphylococcus aureus, comparison with positive controls: BALB/c mice, 7 mg/kg i.p., 10 days.
Series [4] in a line: In vivo pharmacokinetic assay in mice. The settings on record: for AUCINF_obs / AUClast / CL_obs / MRTINF_obs / T1/2 / VSS_obs: male CD-1 mice, intravenous single dose 5 mg/kg; for AUC(0-inf) / AUC(0-t) / MRT inf / half-life: male, CD-1, mouse, in vivo, iv, 5 mg/kg.
For series [5] the following is noted: male, CD-1, mouse, in vivo, iv, 5 mg/kg.
The next series is described as follows: in vivo. The settings on record: male, CD-1, mouse, iv, 5 mg/kg.
The mark [6] stands for this setting: Staphylococcus aureus; S. aureus Mu50, 37° C., 16 h; read-out: MIC Mu50.
Setting [7] is: Staphylococcus aureus, 16 h, S. aureus Mu50, 37° C., read-out: MIC Mu50.
[8] abbreviates: female BALB/c mice, USA300 LAC retro-orbital, single dose 7 mg/kg intraperitoneally 1 h after infection, after 10 days.
Where [9] appears, read: Staphylococcus aureus, 16 h, read-out: MIC Mu50.

The term MIC denotes the lowest concentration found to suppress growth. As usually defined, the AUC(0-inf) is the area under the concentration-time curve extrapolated to infinity. High values mean high exposure, low ones low exposure. What is called AUC(0-t) is the area under the concentration-time curve up to a stated or last time point. As a reminder, the MRT inf is the average time that molecules of a dose stay in the body. Broadly, the half-life is the time needed for the level to fall by half in the phase considered. Low readings indicate rapid decline, high ones slow decline.

Molecules are shown by their SMILES. ≈ marks a conversion by molar mass, not a printed value. Entries after “also recorded” stand apart in the source; their conditions may differ. Where two headings read alike, the source gives them in different places.

Consider `CCCCCCCCCCNCCN[C@@]1(C)C[C@H](O[C@H]2[C@H](Oc3c4cc5cc3Oc3ccc(cc3Cl)[C@@H](O)[C@@H](NC(=O)[C@@H](CC(C)C)NC)C(=O)N[C@@H](CC(N)=O)C(=O)N[C@H]5C(=O)N[C@H]3C(=O)N[C@H](C(=O)N[C@H](C(=O)O)c5cc(O)c(CNCP(=O)(O)O)c(O)c5-c5cc3ccc5O)[C@H](O)c3ccc(c(Cl)c3)O4)O[C@H](CO)[C@@H](O)[C@@H]2O)O[C@@H](C)[C@H]1O` [Tela., telavancin, reference compound], for which the minimal inhibitory concentration (MIC) in series [1] was below 0.0625 µg/mL. Moreover, the minimal inhibitory concentration (MIC) in series [2] (setting [6]) was 1 µg/mL (≈ 0.57 µM). Further, in series [3] (in vivo, ip, 7 mg/kg), the survival rate is 93.3%. For the same compound, in series [4], the AUCINF_obs was found to be 17304 ± 5745 ng·h/mL, the AUClast turned out to be 17143 ± 5611 ng·h/mL, the CL_obs worked out at 5.1 ± 1.5 mL/min/kg and the MRTINF_obs came to 1.71 ± 0.13 h. In series [4], this compound registered a T1/2 of 1.13 ± 0.13 h.
In series [1] (NEWMAN), `CN[C@H](CC(C)C)C(=O)N[C@H]1C(=O)N[C@@H](CC(N)=O)C(=O)N[C@H]2C(=O)N[C@H]3C(=O)N[C@H](C(=O)N[C@H](C(=O)O)c4cc(O)c(CNCCCNC(=O)[C@H](O)[C@@H](O)[C@H](O)[C@H](O)CO)c(O)c4-c4cc3ccc4O)[C@H](O)c3ccc(c(Cl)c3)Oc3cc2cc(c3OC2O[C@H](CO)C(O)C(O)[C@H]2O[C@@H]2CC(C)[C@@H](O)C(C)(NCc3ccc(-c4ccc(C(F)(F)F)cc4)cc3)C2)Oc2ccc(cc2Cl)[C@H]1O` (stereo partly shown) [Van016] had an MIC of at most 0.0625 µg/mL. Besides, the minimal inhibitory concentration (MIC) in series [2] (setting [7]) came to 0.25 µg/mL (≈ 0.128 µM). Besides, the “in vivo antibacterial activity against methicillin-resistant Staphylococcus aureus, comparison with positive controls” value (“in vivo antibacterial activity” below) in series [3] is recorded as “better activity than vancomycin”. This compound yielded a survival rate in series [3] (setting [8]) of 60.0%. Moreover, in series [5], the CL_obs stood at 6.4 ± 1.39 mL/min/kg and the VSS_obs is 1.826 ± 0.334 L/kg. In “in vivo”, the AUC(0-inf) came to 13400 ± 12700 ng·h/mL, the area under the curve AUC(0-t) stood at 10700 ± 2060 ng·h/mL, the MRT inf was determined as 4.79 ± 0.24 h and the half-life was 3.72 ± 0.7 h.
Regarding `C#Cc1ccc(CNC2(C)C[C@H](O[C@H]3C(Oc4c5cc6cc4Oc4ccc(cc4Cl)[C@@H](O)[C@@H](NC(=O)[C@@H](CC(C)C)NC)C(=O)N[C@@H](CC(N)=O)C(=O)N[C@H]6C(=O)N[C@H]4C(=O)N[C@H](C(=O)N[C@H](C(=O)O)c6cc(O)c(CNCCCNC(=O)[C@H](O)[C@@H](O)[C@H](O)[C@H](O)CO)c(O)c6-c6cc4ccc6O)[C@H](O)c4ccc(c(Cl)c4)O5)O[C@H](CO)C(O)C3O)CC(C)[C@H]2O)cc1` (stereo partly shown) [Van029], the values for the MIC in series [1] (NEWMAN) and in series [2] (setting [7]) were 4 µg/mL (≈ 2.19 µM) and 8 µg/mL (≈ 4.38 µM), respectively.
In the same order, the values of `CCCCOc1ccc(CNC2(C)C[C@H](O[C@H]3C(Oc4c5cc6cc4Oc4ccc(cc4Cl)[C@@H](O)[C@@H](NC(=O)[C@@H](CC(C)C)NC)C(=O)N[C@@H](CC(N)=O)C(=O)N[C@H]6C(=O)N[C@H]4C(=O)N[C@H](C(=O)N[C@H](C(=O)O)c6cc(O)c(CNCCCNC(=O)[C@H](O)[C@@H](O)[C@H](O)[C@H](O)CO)c(O)c6-c6cc4ccc6O)[C@H](O)c4ccc(c(Cl)c4)O5)O[C@H](CO)C(O)C3O)CC(C)[C@H]2O)cc1` (stereo partly shown) [Van030] are 1 µg/mL (≈ 0.534 µM) and 2 µg/mL (≈ 1.07 µM).
As to `CCCCCc1ccc(CNC2(C)C[C@H](O[C@H]3C(Oc4c5cc6cc4Oc4ccc(cc4Cl)[C@@H](O)[C@@H](NC(=O)[C@@H](CC(C)C)NC)C(=O)N[C@@H](CC(N)=O)C(=O)N[C@H]6C(=O)N[C@H]4C(=O)N[C@H](C(=O)N[C@H](C(=O)O)c6cc(O)c(CNCCCNC(=O)[C@H](O)[C@@H](O)[C@H](O)[C@H](O)CO)c(O)c6-c6cc4ccc6O)[C@H](O)c4ccc(c(Cl)c4)O5)O[C@H](CO)C(O)C3O)CC(C)[C@H]2O)cc1` (stereo partly shown) [Van031], the MIC in series [1] (NEWMAN) amounted to 0.125 µg/mL (≈ 0.0668 µM); in series [2] (setting [7]), 0.5 µg/mL (≈ 0.267 µM).
`CN[C@H](CC(C)C)C(=O)N[C@H]1C(=O)N[C@@H](CC(N)=O)C(=O)N[C@H]2C(=O)N[C@@H]3C(=O)N[C@H](C(=O)N[C@H](C(=O)O)c4cc(O)c(CNC5C(O)OC(CO)[C@H](O)[C@@H]5O)c(O)c4-c4cc3ccc4O)[C@H](O)c3ccc(c(Cl)c3)Oc3cc2cc(c3O[C@@H]2O[C@H](CO)C(O)C(O)[C@H]2O[C@H]2CC(C)(NCc3ccc(-c4ccc(C(F)(F)F)cc4)cc3)[C@H](O)[C@H](C)O2)Oc2ccc(cc2Cl)[C@H]1O` (stereo partly shown) [Van032] yielded an MIC in series [1] of at most 0.0625 µg/mL. Further, the MIC in series [2] (setting [9]) is at most 0.0625 µg/mL. In addition, the “in vivo antibacterial activity” value in series [3] is “better activity than vancomycin”. Moreover, the survival rate in series [3] (setting [8]) turned out to be 73.3%. Also, in series [4], the CL_obs is listed as 3.45 ± 0.40 mL/min/kg, the VSS_obs came to 0.9 ± 0.18 L/kg, the AUC(0-inf) came out at 24300 ± 2800 ng·h/mL and the AUC(0-t) worked out at 20100 ± 1710 ng·h/mL. Further, in series [4], the MRT inf is 4.41 ± 1.23 h and the half-life is 3.45 ± 1.26 h.
In the case of `CN[C@H](CC(C)C)C(=O)N[C@H]1C(=O)N[C@@H](CC(N)=O)C(=O)N[C@H]2C(=O)N[C@@H]3C(=O)N[C@H](C(=O)N[C@H](C(=O)O)c4cc(O)c(CNC5C(O)OC(CO)[C@H](O)[C@@H]5O)c(O)c4-c4cc3ccc4O)[C@H](O)c3ccc(c(Cl)c3)Oc3cc2cc(c3O[C@@H]2O[C@H](CO)C(O)C(O)[C@H]2O[C@H]2CC(C)(NCc3ccc(C#C[Si](C)(C)C)cc3)[C@H](O)[C@H](C)O2)Oc2ccc(cc2Cl)[C@H]1O` (stereo partly shown) [Van033], the MIC in series [1] came out at 0.5 µg/mL (≈ 0.274 µM); in series [2] (setting [6]) it was 2 µg/mL (≈ 1.09 µM).
`CCCCCCCCCCNC1(C)C[C@H](O[C@@H]2C(O)C(O)[C@@H](CO)O[C@H]2Oc2c3cc4cc2Oc2ccc(cc2Cl)[C@@H](O)[C@@H](NC(=O)[C@@H](CC(C)C)NC)C(=O)N[C@@H](CC(N)=O)C(=O)N[C@H]4C(=O)N[C@@H]2C(=O)N[C@H](C(=O)N[C@H](C(=O)O)c4cc(O)c(CNC5C(O)OC(CO)[C@H](O)[C@@H]5O)c(O)c4-c4cc2ccc4O)[C@H](O)c2ccc(c(Cl)c2)O3)O[C@@H](C)[C@H]1O` (stereo partly shown) [Van034]: the MIC is at most 0.0625 µg/mL in series [1] (NEWMAN) and 0.25 µg/mL (≈ 0.14 µM) in series [2] (setting [7]).
For the compound `C#Cc1ccc(CNC2(C)C[C@H](O[C@@H]3C(O)C(O)[C@@H](CO)O[C@H]3Oc3c4cc5cc3Oc3ccc(cc3Cl)[C@@H](O)[C@@H](NC(=O)[C@@H](CC(C)C)NC)C(=O)N[C@@H](CC(N)=O)C(=O)N[C@H]5C(=O)N[C@@H]3C(=O)N[C@H](C(=O)N[C@H](C(=O)O)c5cc(O)c(CNC6C(O)OC(CO)[C@H](O)[C@@H]6O)c(O)c5-c5cc3ccc5O)[C@H](O)c3ccc(c(Cl)c3)O4)O[C@@H](C)[C@H]2O)cc1` (stereo partly shown) [Van035], the values for the minimum inhibitory concentration (MIC) in series [1] and in series [2] (setting [9]) were 2 µg/mL (≈ 1.14 µM) and 8 µg/mL (≈ 4.56 µM), respectively.
In the same order, the values of `CCCCCc1ccc(CNC2(C)C[C@H](O[C@@H]3C(O)C(O)[C@@H](CO)O[C@H]3Oc3c4cc5cc3Oc3ccc(cc3Cl)[C@@H](O)[C@@H](NC(=O)[C@@H](CC(C)C)NC)C(=O)N[C@@H](CC(N)=O)C(=O)N[C@H]5C(=O)N[C@@H]3C(=O)N[C@H](C(=O)N[C@H](C(=O)O)c5cc(O)c(CNC6C(O)OC(CO)[C@H](O)[C@@H]6O)c(O)c5-c5cc3ccc5O)[C@H](O)c3ccc(c(Cl)c3)O4)O[C@@H](C)[C@H]2O)cc1` (stereo partly shown) [Van036] are 0.25 µg/mL (≈ 0.139 µM) and 0.5 µg/mL (≈ 0.278 µM).
In the case of `CN[C@H](CC(C)C)C(=O)N[C@H]1C(=O)N[C@@H](CC(N)=O)C(=O)N[C@H]2C(=O)N[C@@H]3C(=O)N[C@H](C(=O)N[C@H](C(=O)O)c4cc(O)c(CNC5C(O)OC(CO)[C@H](O)[C@@H]5O)c(O)c4-c4cc3ccc4O)[C@H](O)c3ccc(c(Cl)c3)Oc3cc2cc(c3O[C@@H]2O[C@H](CO)C(O)C(O)[C@H]2O[C@H]2CC(C)(NCc3ccc(-c4ccc(Cl)cc4)cc3)[C@H](O)[C@H](C)O2)Oc2ccc(cc2Cl)[C@H]1O` (stereo partly shown) [Van038], the MIC in series [1] is at most 0.0625 µg/mL. In addition, the MIC in series [2] (setting [9]) is 0.125 µg/mL (≈ 0.0679 µM). Moreover, the “in vivo antibacterial activity” value in series [3] (7 mg/kg) is “better activity than vancomycin; also recorded: comparable activities with telavancin”. The compound also registered a survival rate in series [3] (setting [8]) of 93.3%. For the same compound, in series [4], the CL_obs is reported as 7.0 ± 1.38 mL/min/kg, the VSS_obs stood at 1.754 ± 0.38 L/kg, the AUC(0-inf) stood at 12200 ± 2490 ng·h/mL and the area under the curve AUC(0-t) came to 12100 ± 2480 ng·h/mL. Moreover, in series [4], the MRT inf came out at 4.18 ± 0.34 h and the half-life is 3.81 ± 0.31 h.
`CN[C@H](CC(C)C)C(=O)N[C@H]1C(=O)N[C@@H](CC(N)=O)C(=O)N[C@H]2C(=O)N[C@H]3C(=O)N[C@H](C(=O)N[C@H](C(=O)O)c4cc(O)cc(O)c4-c4cc3ccc4O)[C@H](O)c3ccc(c(Cl)c3)Oc3cc2cc(c3O[C@@H]2O[C@H](CO)[C@@H](O)[C@H](O)[C@H]2O[C@H]2C[C@](C)(N)[C@H](O)[C@H](C)O2)Oc2ccc(cc2Cl)[C@H]1O` [Vanco., vancomycin]: the MIC in series [1] is 2 µg/mL (≈ 1.38 µM). The MIC in series [2] (setting [6]) was 8 µg/mL (≈ 5.52 µM). Also, in series [3] (in vivo, ip, 7 mg/kg), the survival rate turned out to be 6.6%. Also, the VSS_obs in series [5] was determined as 3.076 ± 0.175 L/kg. In addition, in series [4], the AUCINF_obs was 1271 ± 347 ng·h/mL, the AUClast came to 1242 ± 335 ng·h/mL, the CL_obs is listed as 68.7 ± 18 mL/min/kg and the MRTINF_obs is given as 0.790 ± 0.26 h. Moreover, the T1/2 in series [4] is 0.597 ± 0.208 h.
